Among the data in patent US20240415819A1, “MACROCYCLIC COMPOUNDS AS PROTEASOME SUBUNIT BETA TYPE-5 INHIBITORS” (Lead Discovery Center GmbH, priority 2021, published 2024) are IC50 values, retold here.

Test [1] concerns MDA-MB-468 (breast carcinoma). Kind of test: 48 hr CTG viability assay, MDA-MB-468. Type of test: cell-based. Conditions: Homo sapiens. On the procedure: (§1) A viability assay was conducted for 48 hours to evaluate the inhibition of cancer cell growth by proteasome inhibitors. Briefly, the candidate cell line was plated with a 96-well plate following density of cells, respectively. 6×10^3 Cells/well for A2780 (human ovarian cancer cell line) and MDA-MB-468 (breast carcinoma), 8×10^3 Cells/well for Hs746T (human gastric carcinoma cell line), 1.1×10^4 Cells/well for MM1 S and RPMI 8226 (multiple myeloma). After 24 hours, the cells were treated with various concentrations of the compound (ranging from 0.0015 uM to 10 uM). […] After 48 hours of incubation at 37° C., 5% CO2 incubator, cells were analyzed for viability using the CellTiter-Glo Luminescent Cell Viability assay (Promega, Cat #G7570). All viability assays were performed in duplicate and Luminescence was read using an Envision (Perkin Elmer, USA). Data were analyzed using XLfit software. […] (human gastric carcinoma cell line), MM1 S (B lymphoblast cell line), and RPMI 8226 (B lymphocyte cell line, multiple myeloma). Inhibition is indicated as IC50 [nM] (“-”=not measured).

The test system of test [2] is MM1 S (B lymphoblast cell line). Put plainly: 48 hr CTG viability assay, MM1S. The class given is cell-based. Conditions: Homo sapiens, 48 hr CTG, read-out: MM1S IC50. In a few lines:
(§2)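 Growth inhibition by compound over 48 h; IC50 (nM) derived from duplicate CellTiter-Glo luminescence readings across 0.0015–10 uM.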

In test [3] the test system is A2780 (human ovarian cancer cell line). Put plainly: 48 hr CTG viability assay, A2780. The class given is cell-based. On the procedure: as §1
Test [4] has as its target T1, β5 subunit of the human immunoproteasome (IPS) (Homo sapiens, UniProt P28062).
T1 construct: purchased Boston Biochem E-370
Kind of test: β5 inhibition assay, human immunoproteasome (Suc-LLVY-AMC). Type of test: biochemical. Conditions: IC50 class, Suc-LLVY-AMC substrate. In outline: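 Human immunoproteasome (1 nM final) was preincubated 10 min at RT with compound in 100 mM HEPES pH 7.5, 50 mM NaCl, 0.02% SDS, 1 mM DTT. Suc-LLVY-AMC (22.6 μM final) was then added for 4 h at RT in the dark. After stopping with 1 μM bortezomib, AMC fluorescence was read (ex 355/em 460 nm).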

Test [5] relates to RPMI 8226 (B lymphocyte cell line, multiple myeloma). Kind of test: 48 hr CTG viability assay, RPMI 8226. The class given is cell-based. The following applies: Homo sapiens, RPMI-8226; 48 hr CTG; read-out: RPMI-8226 IC50. In outline: as §2
The target in test [6] is T2, β5 subunit of the human constitutive proteasome (CPS) (Homo sapiens, UniProt P28074).
T2 construct: purchased Boston Biochem E-360
Put plainly: β5 inhibition assay, human constitutive proteasome (Suc-LLVY-AMC). The following applies: IC50 class, Suc-LLVY-AMC substrate. The class given is biochemical. On the procedure:
The enzymatic activity of the β5 subunit of the human constitutive proteasome (CPS) is analyzed. In another assay, which differs from the assay of the human constitutive proteasome only in using the human immunoproteasome (IPS) the enzymatic activity of the β5 subunit of the human immunoproteasome (IPS) is analyzed. […] Inhibition is indicated as IC50 [nM] (“-”=not measured).

In test [7] the test system is A549 (human lung carcinoma cell line). Put plainly: Glo assay of A549 cells (Table 3; ProteasomeGlo plating scheme). Type of test: cell-based. Conditions: Homo sapiens; A549 cells; read-out: PGLo A549. In outline: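 After acoustic compound transfer, plates incubate 105 min (37° C., 5% CO2). Proteasome-Glo reagent containing Suc-LLVY-Glo substrate is added, plates are shaken, then luminescence is measured after 10-15 min to derive IC50 [nM]. Staurosporine and DMSO serve as controls.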

The test system of test [8] is Hs 746T (human gastric carcinoma cell line). Kind of test: 48 hr CTG viability assay, Hs 746T. The class given is cell-based. The following applies: Hs746T, 48 hr CTG, read-out: Hs 746T IC50. In outline:
as §2

Some results are limits rather than exact numbers.

As for `Cc1ccc2cc1CNC(=O)[C@H](CCc1ccccc1)NC(=O)[C@@H](NC(=O)[C@@H](C)c1ccc(N)cc1)CC(=O)N1CCCC(CCO2)C1` (stereo partly drawn) [Compound 634, (2S)-2-(4-aminophenyl)-N-((9S,12S)-5^4-methyl-8,11,14-trioxo-9-phenethyl-4-oxa-7,10-diaza-1(3,1)-piperidina-5(1,3)-benzenacyclotetradecaphane-12-yl)propanamide], the IC50 in test [1], in test [2], in test [3], in test [4], in test [5] and in test [6] was below 100 nM throughout. The IC50 in test [7] and in test [8] was below 100 nM each time.

For the compound `Cc1ccc2cc1CNC(=O)[C@H](CCc1ccccc1)NC(=O)[C@@H](NC(=O)C1(CO)CC1)CC(=O)N1CCCC(CCO2)C1` (stereo partly drawn) [Compound 664, 1-(hydroxymethyl)-N-((9S,12S)-5^4-methyl-8,11,14-trioxo-9-phenethyl-4-oxa-7,10-diaza-1(3,1)-piperidina-5(1,3)-benzenacyclotetradecaphane-12-yl)cyclopropane-1-carboxamide], the IC50 in test [1], in test [2], in test [4], in test [5], in test [6] and in test [7] was below 100 nM in each case. Further, the IC50 in test [8] was below 100 nM.

With `Cc1ccc2cc1CNC(=O)[C@H](CCc1ccccc1)NC(=O)[C@@H](NC(=O)N1CCc3cc(N)ccc31)CC(=O)N1CCCC(CCO2)C1` (stereo partly drawn) [Compound 704, 5-amino-N-((9S,12S)-5^4-methyl-8,11,14-trioxo-9-phenethyl-4-oxa-7,10-diaza-1(3,1)-piperidina-5(1,3)-benzenacyclotetradecaphane-12-yl)indoline-1-carboxamide], the IC50 in test [1], in test [2], in test [4], in test [5], in test [6] and in test [7] was below 100 nM throughout. Further, the IC50 in test [8] was below 100 nM.

`Cc1ccc2cc1CNC(=O)[C@H](CCc1ccccc1)NC(=O)[C@@H](NC(=O)C(C)(C)CO)CC(=O)NCCCCO2` [Compound 735, 3-hydroxy-2,2-dimethyl-N-((10S,13S)-1^4-methyl-8,11,14-trioxo-13-phenethyl-2-oxa-7,12,15-triaza-1(1,3)-benzenacyclohexadecaphane-10-yl)propanamide]: the IC50 in test [1] was above 5000 nM; in test [2] it was 1000 to 5000 nM; in test [4], below 100 nM; in test [5] it was 1000 to 5000 nM; in test [6], 100 to 500 nM; in test [7], above 5000 nM. For the same compound, the IC50 in test [8] was above 5000 nM.

As for `Cc1ccc2cc1CNC(=O)[C@H](CCc1ccccc1)NC(=O)[C@@H](NC(=O)C1(CO)CCNCC1)CC(=O)N1CCCC(CCO2)C1` (stereo partly drawn) [Compound 730, 4-(hydroxymethyl)-N-((9S,12S)-5^4-methyl-8,11,14-trioxo-9-phenethyl-4-oxa-7,10-diaza-1(3,1)-piperidina-5(1,3)-benzenacyclotetradecaphane-12-yl)piperidine-4-carboxamide], the IC50 in test [1] was 1000 to 5000 nM; in test [2], 100 to 500 nM; in test [4], below 100 nM; in test [5], 500 to 1000 nM; in test [6], below 100 nM; in test [7], 100 to 500 nM. Also, the IC50 in test [8] lay in the range of 500 to 1000 nM.

As for `Cc1ccc2cc1CNC(=O)[C@H](CCc1ccccc1)NC(=O)[C@@H](NC(=O)C(F)(F)CO)CC(=O)N1CCCC(CCO2)C1` (stereo partly drawn) [Compound 599, 2,2-difluoro-3-hydroxy-N-((9S,12S)-5^4-methyl-8,11,14-trioxo-9-phenethyl-4-oxa-7,10-diaza-1(3,1)-piperidina-5(1,3)-benzenacyclotetradecaphane-12-yl)propanamide], the IC50 in test [1], in test [2], in test [4], in test [5], in test [6] and in test [7] was below 100 nM each time. Further, the IC50 in test [8] was below 100 nM.

For `Cc1ccc2cc1CNC(=O)[C@H](CCc1ccccc1)NC(=O)[C@@H](NC(=O)[C@H](C)c1ccc(N)cc1)CC(=O)N1CCCC(CCO2)C1` (stereo partly drawn) [Compound 738, (2R)-2-(4-aminophenyl)-N-((9S,12S)-5^4-methyl-8,11,14-trioxo-9-phenethyl-4-oxa-7,10-diaza-1(3,1)-piperidina-5(1,3)-benzenacyclotetradecaphane-12-yl)propanamide], the IC50 in test [1], in test [2], in test [3], in test [4], in test [5] and in test [6] was below 100 nM in each case. The IC50 in test [7] and in test [8] was below 100 nM throughout.

`Cc1ccc2cc1CNC(=O)[C@H](CCc1cccnc1)NC(=O)[C@@H](NC(=O)C(C)(C)CO)CC(=O)N1CCCC(CCO2)C1` (stereo partly drawn) [Compound 683, 3-hydroxy-2,2-dimethyl-N-((9S,12S)-5^4-methyl-8,11,14-trioxo-9-(2-(pyridin-3-yl)ethyl)-4-oxa-7,10-diaza-1(3,1)-piperidina-5(1,3)-benzenacyclotetradecaphane-12-yl)propanamide]: the IC50 in test [1], in test [2], in test [4], in test [5], in test [6] and in test [7] was below 100 nM in each case. In test [8], the IC50 is below 100 nM.
